Data as given in publication PMC3094066 (Molecular Systems Biology, 2011).

Biological target: human ADRB2 (Homo sapiens, UniProt P07550)
Experiment: Calcium mobilization assay
Assay type: cell-based
Conditions: in words; for ADRB2 antagonist activity: Figure 4B

Sequence of human ADRB2 (P07550 whole entry): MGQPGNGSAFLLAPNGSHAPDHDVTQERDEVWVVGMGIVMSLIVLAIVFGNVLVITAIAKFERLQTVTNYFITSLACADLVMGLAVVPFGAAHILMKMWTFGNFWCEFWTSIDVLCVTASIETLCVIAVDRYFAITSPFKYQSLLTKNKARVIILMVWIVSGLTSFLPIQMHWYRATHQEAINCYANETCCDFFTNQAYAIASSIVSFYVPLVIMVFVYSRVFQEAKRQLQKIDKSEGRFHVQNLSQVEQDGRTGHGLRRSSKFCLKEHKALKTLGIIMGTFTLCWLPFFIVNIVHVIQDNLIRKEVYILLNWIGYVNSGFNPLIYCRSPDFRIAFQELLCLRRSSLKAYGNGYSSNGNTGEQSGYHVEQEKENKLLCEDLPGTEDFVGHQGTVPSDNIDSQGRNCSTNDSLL

| ADRB2 antagonist activity | ADRB2 agonist activity (Figure 4A) | SMILES |
| --- | --- | --- |
| strong ADRB2 antagonist activity | – | COCCCNCC(O)COc1cccc2[nH]c(C)cc12 (stereo not drawn) [Compound 33, 1-[(3-Methoxypropyl)amino]-3-[(2-methyl-1H-indol-4-yl)oxy]-2-propanol] |
| – | weak ADRB2 agonist activity | Cc1ccc(-n2c(C)ccc2C)c2c1CC(C)(C)O2 [Compound 5, 2,5-Dimethyl-1-(2,2,4-trimethyl-2,3-dihydro-1-benzofuran-7-yl)-1H-pyrrole] |
| strong ADRB2 antagonist activity | – | Cc1cc2c(OCC(O)CNC(C)(C)C)cccc2[nH]1 (stereo not drawn) [Compound 8, 1-(tert-butylamino)-3-[(2-methyl-1H-indol-4-yl)oxy]-2-propanol, reference compound] |
